Patent publication US12559464B2, “Quinazolinone dione compounds and uses thereof” (Edgewise Therapeutics, Inc., priority 2023, dated 2026)

What was measured:
[1] = test system: myosin ATPase, Rabbit Psoas myofibrils; test: Myofibril ATPase assay, rabbit psoas (skeletal) myofibrils; type: biochemical; details: Rabbit Psoas Prep pCa 25 GEOM_MEAN; for Rabbit Psoas EC25 (Y75 value): concentration required to reduce myosin ATP-ase activity by 25%; for Rabbit Psoas Y125 value (marked #): concentration required to increase myosin ATP-ase activity by 25%
Protocol: [Worded in the source for another species; this species is reported under the same test.] (§1) Myofibril ATPase assays are known in the art to be useful in evaluating small molecules for the treatment of HCM and other cardiac indications. Myosin ATPase activity is assessed by using a coupled reaction system, in which ADP generated by the myosin ATPase function is coupled to the disappearance of NADH through the pyruvate kinase/lactate dehydrogenase (PK-LDH) system. ATPase activity produces ADP, which is used as a substrate for PK to produce pyruvate and regenerate ATP. The pyruvate is then used as a substrate by LDH to oxidize NADH to NAD+. The rate of the reaction is monitored through the time-dependent disappearance of NADH using absorbance at 340 nm, which, when the couple system is in stoichiometric excess, is directly correlated to the ATPase activity of the myosin. Inhibition of ATPase activity by the assayed compounds is indicated by a reduced rate of NADH loss, relative to vehicle-treated controls, over the experimental time window. Porcine Ventricle are the primary sources of myofibril material.
(§2) Materials: The following stock solutions and reagents were used in the Myofibril ATPase Assay: Stock Solutions; PIPES, 200 mM and 120 mM in H2O, pH 7.0; MgCl2 in H2O, 200 mM; PM12 Buffer, 10×: 120 mM PIPES (from 200 mM stock), 20 mM MgCl2 (from 200 mM stock); PBS Buffer, 1X: 135 mM NaCl, […], 10 mM Na(PO4)2, 1.8 mM K2(PO4), pH 7.4; EGTA in H2O, 250 mM; CaCl2) in H2O, 500 mM; DTT in H2O, 1 M; BSA in H2O, 10 mg/mL; ATP in 1×PBS, 50 mM; NADH in 1X PM12 and 1 mM DTT, 26 mM; PEP in 1X PM12, 78 mM, pH 7.0.
(§3) Stock Solutions of pCa buffer. Combine PIPES, CaCl2, and EGTA solutions with water. Adjust pH to 7.0 and bring final volume to 100 mL.
(§4) Buffer A & Buffer B. Prepare buffers A and B according to the table below.
(§5) Myofibril ATPase Assay Procedure: BSA, ATP, NADH, PEP, and DTT solutions were thawed at room temperature, then transferred to ice. Pellet-frozen myofibrils were transferred with approximately twice the required volume into a sufficiently large tube and capped. Myofibrils were thawed by rolling in a water bath for approximately 15 min at room temperature and cooled on ice. Buffers A and B were prepared by adjusting volumes as necessary for required number of wells and stored on ice. 0.5 μL of the compounds to be assayed were added into wells. 25 μL of Buffer A was dispensed into the wells, followed by 25 μL of Buffer B. The wells were measured for absorbance at 340 nm, using a kinetic protocol in which the wells are read every 1.5-2 min for 75 min. Assay data analysis was performed using a python script that filtered the raw data to retain those points falling between a starting and ending time and between a maximum and minimum absorbance, then used the filtered time-domain 340 nm absorbance data in each well to calculate a slope via linear regression analysis in units of mAU/min. Compound slopes were normalized between 100% and 0% activity, where 100% represented the slope of wells containing only compound vehicle, and fit to a 4-parameter logistic model. In addition to the fit parameters, the EC25% values were calculated, relative to the 100% normalized value. Additionally, the Y125 values were calculated for compounds that increased myosin ATP-ase activity. Fit parameters, calculated effective concentrations, filtered raw data, and calculated slopes were exported, in addition to compound-specific graphs of normalized ATPase activity versus concentration in μM. Each value reported in Table 8 is either a Y75 value or a Y125 value. Values without pound sign, #, are Y75 values, which reflect the concentration required to reduce myosin ATP-ase activity by 25% (e.g., Y-axis activity value is 75% of initial value), relative to myosin ATP-ase activity in the absence of exogenous compound. […]

[2] = test system: myosin ATPase, Porcine Atria myofibrils; test: Myofibril ATPase assay, porcine atria myofibrils; type: biochemical; details: Porcine Atria Prep pCa 25 GEOM_MEAN; for Porcine Atria EC25 (Y75 value): concentration required to reduce myosin ATP-ase activity by 25%
[3] = target: T1, myosin ATPase, Porcine Ventricle myofibrils (Sus scrofa, UniProt P79293); test: Myofibril ATPase assay, porcine ventricle myofibrils; type: biochemical, porcine (Yucatan minipigs); details: concentration required to reduce myosin ATP-ase activity by 25%; Porcine Ventricle Prep pCa 25 GEOM_MEAN
T1 construct: Myofibrils from porcine cardiac muscle was isolated from the left ventricle of Yucatan minipigs; tissue Exemplar Genetics; host or cells: left ventricle of Yucatan minipigs, myofibrils
T1 sequence (P79293 whole entry): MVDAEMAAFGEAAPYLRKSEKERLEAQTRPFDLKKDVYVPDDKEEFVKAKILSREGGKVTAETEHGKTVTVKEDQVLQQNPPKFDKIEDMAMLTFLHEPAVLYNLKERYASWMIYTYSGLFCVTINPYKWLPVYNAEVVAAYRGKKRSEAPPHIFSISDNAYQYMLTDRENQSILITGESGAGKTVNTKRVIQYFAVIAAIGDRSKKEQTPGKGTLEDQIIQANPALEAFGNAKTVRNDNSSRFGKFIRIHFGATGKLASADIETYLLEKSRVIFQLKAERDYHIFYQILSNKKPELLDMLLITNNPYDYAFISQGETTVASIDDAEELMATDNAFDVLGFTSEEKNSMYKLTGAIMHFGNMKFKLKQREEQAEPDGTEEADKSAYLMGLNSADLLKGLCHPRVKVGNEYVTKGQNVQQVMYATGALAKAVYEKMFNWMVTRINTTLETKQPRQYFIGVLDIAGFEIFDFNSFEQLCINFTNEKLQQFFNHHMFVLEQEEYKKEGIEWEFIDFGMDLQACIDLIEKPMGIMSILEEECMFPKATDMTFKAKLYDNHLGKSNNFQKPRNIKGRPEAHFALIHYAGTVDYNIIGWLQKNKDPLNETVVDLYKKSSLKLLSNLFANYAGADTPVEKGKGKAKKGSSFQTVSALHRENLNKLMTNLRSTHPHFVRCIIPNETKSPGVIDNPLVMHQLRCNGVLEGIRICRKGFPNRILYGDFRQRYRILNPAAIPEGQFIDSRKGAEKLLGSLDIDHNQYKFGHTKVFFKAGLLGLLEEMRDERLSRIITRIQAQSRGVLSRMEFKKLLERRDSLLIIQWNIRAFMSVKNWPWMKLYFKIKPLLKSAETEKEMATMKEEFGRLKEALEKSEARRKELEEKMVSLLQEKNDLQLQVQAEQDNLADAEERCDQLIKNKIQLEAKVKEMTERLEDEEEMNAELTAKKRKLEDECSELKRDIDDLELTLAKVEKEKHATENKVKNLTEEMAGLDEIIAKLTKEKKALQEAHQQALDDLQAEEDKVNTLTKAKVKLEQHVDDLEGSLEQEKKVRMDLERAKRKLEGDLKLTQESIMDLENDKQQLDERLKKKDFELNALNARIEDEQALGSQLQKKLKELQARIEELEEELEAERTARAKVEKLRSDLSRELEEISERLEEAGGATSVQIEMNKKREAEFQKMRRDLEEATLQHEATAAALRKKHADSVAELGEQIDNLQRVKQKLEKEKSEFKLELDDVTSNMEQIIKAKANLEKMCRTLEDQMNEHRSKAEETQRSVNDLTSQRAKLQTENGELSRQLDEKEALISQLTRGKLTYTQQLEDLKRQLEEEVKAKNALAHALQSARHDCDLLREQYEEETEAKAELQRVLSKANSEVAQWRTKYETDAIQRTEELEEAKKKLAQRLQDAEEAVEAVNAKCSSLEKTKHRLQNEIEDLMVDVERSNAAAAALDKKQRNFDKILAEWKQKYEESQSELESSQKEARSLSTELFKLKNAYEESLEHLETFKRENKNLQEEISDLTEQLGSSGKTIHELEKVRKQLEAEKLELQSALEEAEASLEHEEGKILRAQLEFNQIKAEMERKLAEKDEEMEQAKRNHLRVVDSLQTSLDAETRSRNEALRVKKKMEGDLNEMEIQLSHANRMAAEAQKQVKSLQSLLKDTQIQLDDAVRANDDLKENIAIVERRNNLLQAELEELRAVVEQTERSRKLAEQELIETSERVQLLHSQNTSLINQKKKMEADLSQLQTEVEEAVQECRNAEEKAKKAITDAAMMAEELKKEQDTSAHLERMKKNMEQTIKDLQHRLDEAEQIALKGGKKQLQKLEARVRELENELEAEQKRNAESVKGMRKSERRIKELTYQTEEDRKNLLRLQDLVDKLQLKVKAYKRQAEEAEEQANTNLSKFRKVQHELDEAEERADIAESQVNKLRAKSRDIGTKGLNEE
Protocol: as §1, §2, §3, §4, §5

Structure (SMILES) | Rabbit Psoas EC25 (Y75 value) [1] [µM] | Porcine Atria EC25 (Y75 value) [2] [µM] | Porcine Ventricle EC25 (Y75 value) [3] [µM] | Rabbit Psoas Y125 value (marked #) [1] | Porcine Atria Y125 value (marked #) ([2]; concentration required to increase myosin ATP-ase activity by 25%)
C[C@H](NC(=O)Cn1c(=O)[nH]c2ccc(F)cc2c1=O)c1cnc(C#N)nc1 (single isomer, unassigned) [Compound 210] | 0.174 | 0.118 | 0.559 |  | 
C[C@H](NC(=O)[C@H](CC1CC1)n1c(=O)[nH]c2ccccc2c1=O)c1ncc(F)cc1F (single isomer, unassigned) [Compound 211] | 100 | 100 | 100 |  | 
C[C@H](NC(=O)[C@@H](CC1CC1)n1c(=O)[nH]c2ccccc2c1=O)c1ncc(F)cc1F (single isomer, unassigned) [Compound 212] | 100 | 100 | 100 |  | 
C[C@H](NC(=O)[C@H](CC1CC1)n1c(=O)[nH]c2ccccc2c1=O)c1ccc(F)cc1F (single isomer, unassigned) [Compound 501] | 84.531 | 100 | 50.21 |  | 
C[C@H](NC(=O)[C@@H](CC1CC1)n1c(=O)[nH]c2ccccc2c1=O)c1ccc(F)cc1F (single isomer, unassigned) [Compound 502] | 13.814 | 43.27 | 100 |  | 
Cc1cc(F)ccc1[C@H](C)NC(=O)Cn1c(=O)[nH]c2ccccc2c1=O (single isomer, unassigned) [Compound 503] | 0.36 | 0.1046 | 1.526 |  | 
C[C@H](NC(=O)C(Cc1ccccc1)n1c(=O)[nH]c2ccccc2c1=O)c1ccc(F)cc1F (single isomer, unassigned) [Compound 504] |  | 20.67 | 43.467 | 3.28^#^ μM | 
C[C@H](NC(=O)C(c1cccnc1)n1c(=O)[nH]c2ccccc2c1=O)c1ccc(F)cc1F (single isomer, unassigned) [Compound 508] | 100 | 100 | 100 |  | 
CCC(C(=O)N[C@@H](C)c1ccc(F)cc1F)n1c(=O)[nH]c2ccccc2c1=O (single isomer, unassigned) [Compound 509] | 100 | 100 | 100 |  | 
C[C@H](NC(=O)C(c1ccccc1)n1c(=O)[nH]c2ccccc2c1=O)c1ccc(F)cc1F (single isomer, unassigned) [Compound 510] | 100 | 100 | 100 |  | 
C[C@H](NC(=O)C(CO)n1c(=O)[nH]c2ccccc2c1=O)c1ccc(F)cc1F (single isomer, unassigned) [Compound 511] | 35.849 | 2.118 | 100 |  | 
CC(C)CC(C(=O)N[C@@H](C)c1ccc(F)cc1F)n1c(=O)[nH]c2ccccc2c1=O (single isomer, unassigned) [Compound 512] |  |  | 100 | 23.575^#^ μM | 30.14^# μM
CC(C)C(C(=O)N[C@@H](C)c1ccc(F)cc1F)n1c(=O)[nH]c2ccccc2c1=O (single isomer, unassigned) [Compound 513] | 100 | 100 | 100 |  | 
C[C@H](NC(=O)Cn1c(=O)[nH]c2ccccc2c1=O)c1cc(C(F)(F)F)cc(C(F)(F)F)c1 (single isomer, unassigned) [Compound 517] | 100 | 100 | 100 |  | 
